Data reported in ChEMBL document CHEMBL4321794, “Discovery and Optimization of 2-Arylquinazolin-4-ones into a Potent and Selective Tankyrase Inhibitor Modulating Wnt Pathway Activity” (J Med Chem, 2019).

Key:
[1] = Intrinsic clearance in mouse liver microsomes assessed per mg protein in presence of NADPH by UPLC analysis; type: ADME, Microsome; settings: read-out: CLH
[2] = molecular target: Voltage-gated inwardly rectifying potassium channel KCNH2 (Homo sapiens, UniProt Q12809); assay: Inhibition of human ERG expressed in HEK293 cells at -80 mV holding potential by whole cell patch clamp method; type: cell-based
[3] = molecular target: Poly [ADP-ribose] polymerase 1 (Homo sapiens, UniProt P09874); assay: Inhibition of recombinant human full-length Myc/His-tagged Parp-1 expressed in baculovirus infected Sf21 insect cells assessed as reduction in auto-PARsylation using activated DNA as substrate incubated for 150 mins in presence of NAD and bio-NAD as co-substrate by TR-FRET assay
[4] = Intrinsic clearance in human liver microsomes assessed per mg protein in presence of NADPH by UPLC analysis; type: ADME, Microsome; settings: read-out: CLH
[5] = molecular target: T1, Poly [ADP-ribose] polymerase tankyrase-1 (Homo sapiens, UniProt O95271); design: species or system Sf9
T1 sequence (O95271 whole entry): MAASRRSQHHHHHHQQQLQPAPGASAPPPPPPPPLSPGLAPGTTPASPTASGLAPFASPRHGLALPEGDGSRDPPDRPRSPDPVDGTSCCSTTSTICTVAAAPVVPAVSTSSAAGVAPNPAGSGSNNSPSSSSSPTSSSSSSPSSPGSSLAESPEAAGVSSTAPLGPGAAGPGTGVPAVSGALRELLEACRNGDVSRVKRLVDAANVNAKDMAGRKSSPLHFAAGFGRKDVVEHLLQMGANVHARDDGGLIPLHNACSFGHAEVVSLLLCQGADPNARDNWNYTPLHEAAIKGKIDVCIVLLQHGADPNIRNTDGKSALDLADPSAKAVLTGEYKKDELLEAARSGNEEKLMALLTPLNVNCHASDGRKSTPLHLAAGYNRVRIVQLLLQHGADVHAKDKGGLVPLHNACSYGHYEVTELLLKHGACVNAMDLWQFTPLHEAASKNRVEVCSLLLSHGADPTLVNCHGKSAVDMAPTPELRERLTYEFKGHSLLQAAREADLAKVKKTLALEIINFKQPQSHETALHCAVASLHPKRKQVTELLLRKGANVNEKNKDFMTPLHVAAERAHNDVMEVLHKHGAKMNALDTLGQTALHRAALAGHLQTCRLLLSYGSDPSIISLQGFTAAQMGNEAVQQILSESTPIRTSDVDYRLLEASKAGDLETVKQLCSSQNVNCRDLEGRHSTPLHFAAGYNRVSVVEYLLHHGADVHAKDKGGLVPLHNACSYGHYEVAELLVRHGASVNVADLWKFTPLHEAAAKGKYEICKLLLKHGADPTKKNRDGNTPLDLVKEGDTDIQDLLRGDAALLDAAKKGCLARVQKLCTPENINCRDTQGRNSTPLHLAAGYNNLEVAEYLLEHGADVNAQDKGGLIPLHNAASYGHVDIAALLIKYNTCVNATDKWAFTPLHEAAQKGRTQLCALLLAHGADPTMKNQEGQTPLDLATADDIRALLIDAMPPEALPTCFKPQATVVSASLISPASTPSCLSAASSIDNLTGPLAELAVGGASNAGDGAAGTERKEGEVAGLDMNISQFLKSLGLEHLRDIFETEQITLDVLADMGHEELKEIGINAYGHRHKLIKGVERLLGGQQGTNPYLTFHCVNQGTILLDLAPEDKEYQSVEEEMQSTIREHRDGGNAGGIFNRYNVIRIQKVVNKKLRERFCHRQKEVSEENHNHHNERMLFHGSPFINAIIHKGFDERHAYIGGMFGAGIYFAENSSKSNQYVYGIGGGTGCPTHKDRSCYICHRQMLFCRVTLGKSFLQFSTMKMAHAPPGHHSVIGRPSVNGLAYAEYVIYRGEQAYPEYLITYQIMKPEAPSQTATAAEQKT

[6] = Thermodynamic solubility in phosphate buffer at pH 7.4 at 2 mg incubated under shaking condition for 6 hrs followed by rechecking and readjusting pH to 7.4 and further incubated for 18 hrs by HPLC/UV detection method; type: physicochemical; settings: read-out: Therm_solubility

Chain of Voltage-gated inwardly rectifying potassium channel KCNH2 (Q12809 whole entry): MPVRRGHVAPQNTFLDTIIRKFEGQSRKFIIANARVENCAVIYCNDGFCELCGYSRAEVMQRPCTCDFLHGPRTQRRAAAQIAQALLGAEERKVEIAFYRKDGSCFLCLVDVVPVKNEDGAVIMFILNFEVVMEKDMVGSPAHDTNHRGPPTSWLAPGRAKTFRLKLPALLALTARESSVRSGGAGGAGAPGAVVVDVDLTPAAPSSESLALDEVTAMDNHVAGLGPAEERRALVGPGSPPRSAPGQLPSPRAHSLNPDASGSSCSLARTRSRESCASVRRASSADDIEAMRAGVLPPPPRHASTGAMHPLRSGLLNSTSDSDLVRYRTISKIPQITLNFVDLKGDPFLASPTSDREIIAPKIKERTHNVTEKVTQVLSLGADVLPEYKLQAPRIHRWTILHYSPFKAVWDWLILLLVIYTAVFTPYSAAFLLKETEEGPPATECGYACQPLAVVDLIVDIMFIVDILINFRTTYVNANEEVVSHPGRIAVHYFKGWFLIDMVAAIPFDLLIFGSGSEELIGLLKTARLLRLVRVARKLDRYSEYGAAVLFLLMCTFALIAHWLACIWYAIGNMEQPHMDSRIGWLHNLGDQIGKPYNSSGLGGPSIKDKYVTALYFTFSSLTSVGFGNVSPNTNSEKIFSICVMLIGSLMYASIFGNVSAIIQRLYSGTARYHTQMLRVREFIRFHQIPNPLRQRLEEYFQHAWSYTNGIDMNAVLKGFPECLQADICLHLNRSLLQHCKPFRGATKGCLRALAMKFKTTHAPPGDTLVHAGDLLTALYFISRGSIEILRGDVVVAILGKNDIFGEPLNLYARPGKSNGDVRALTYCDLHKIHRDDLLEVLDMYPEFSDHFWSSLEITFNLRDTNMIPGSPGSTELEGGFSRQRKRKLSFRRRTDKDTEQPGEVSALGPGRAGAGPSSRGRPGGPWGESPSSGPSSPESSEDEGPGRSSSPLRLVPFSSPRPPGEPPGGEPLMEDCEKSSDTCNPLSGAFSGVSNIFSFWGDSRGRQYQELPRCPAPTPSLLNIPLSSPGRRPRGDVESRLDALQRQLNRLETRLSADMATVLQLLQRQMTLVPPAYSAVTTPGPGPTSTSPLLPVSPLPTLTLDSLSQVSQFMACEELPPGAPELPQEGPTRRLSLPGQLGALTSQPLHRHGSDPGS
Chain of Poly [ADP-ribose] polymerase 1 (P09874 whole entry): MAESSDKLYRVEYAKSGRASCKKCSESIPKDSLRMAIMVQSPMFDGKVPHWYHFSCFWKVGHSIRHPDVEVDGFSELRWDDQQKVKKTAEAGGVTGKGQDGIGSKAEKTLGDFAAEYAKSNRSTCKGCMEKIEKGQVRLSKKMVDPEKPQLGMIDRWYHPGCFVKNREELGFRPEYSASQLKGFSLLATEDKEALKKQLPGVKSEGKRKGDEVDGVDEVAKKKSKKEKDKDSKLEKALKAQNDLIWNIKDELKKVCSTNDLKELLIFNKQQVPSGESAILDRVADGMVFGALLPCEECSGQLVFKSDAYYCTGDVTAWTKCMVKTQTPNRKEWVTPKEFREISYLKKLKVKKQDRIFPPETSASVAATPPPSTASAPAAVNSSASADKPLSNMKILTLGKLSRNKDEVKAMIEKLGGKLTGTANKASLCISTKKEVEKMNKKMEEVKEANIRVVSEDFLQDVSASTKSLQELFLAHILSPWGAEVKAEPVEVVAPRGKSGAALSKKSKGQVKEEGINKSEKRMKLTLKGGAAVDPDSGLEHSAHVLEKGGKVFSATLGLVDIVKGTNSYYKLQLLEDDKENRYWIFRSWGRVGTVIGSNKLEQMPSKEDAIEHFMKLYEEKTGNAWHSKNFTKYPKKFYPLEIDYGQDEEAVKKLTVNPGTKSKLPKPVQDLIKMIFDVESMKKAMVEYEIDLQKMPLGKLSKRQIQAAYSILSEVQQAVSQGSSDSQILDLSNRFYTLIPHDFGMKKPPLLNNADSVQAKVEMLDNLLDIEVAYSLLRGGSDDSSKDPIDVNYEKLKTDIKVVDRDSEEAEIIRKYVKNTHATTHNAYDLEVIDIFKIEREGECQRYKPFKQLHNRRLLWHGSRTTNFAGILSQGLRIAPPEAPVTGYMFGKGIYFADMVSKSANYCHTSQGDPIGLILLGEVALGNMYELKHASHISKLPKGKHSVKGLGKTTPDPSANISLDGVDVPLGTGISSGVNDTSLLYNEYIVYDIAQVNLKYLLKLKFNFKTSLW

Q: What does the source list for `Cc1cc(F)cc2c(=O)[nH]c(-c3ccc(C4CCNCC4)cc3)nc12.Cl`?
A: microsomal CLint [1]: 77 µL/min/mg; Ki [2]: 6.8 µM; IC50 [3]: 0.39 µM; microsomal CLint [4]: < 10 µL/min/mg; IC50 [5]: 0.0013 µM; solubility thermodynamic at 24 h [6]: 44 µg/mL
